Test [1] deals with T1, mPGES-1 (Homo sapiens (Human), UniProt O14684). Kind of test: A549 cell-based assay (PGE2 formation, IL-1β stimulated, 50% human serum). As to conditions: A549 cells. The method in brief: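 Human A549 cells (7000 cells/well) in F-12 medium with 50% human serum, with IL-1β stimulation. IC50 from 6-8 point titrations.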
Test [2] deals with T1, mPGES-1. Kind of test: mPGES-1 enzyme assay (HTRF detection of PGE2). Format: biochemical. Background: In TR-FRET formats the signal depends on donor and acceptor labels being close together.
The mark [3] stands for this setting: IL-1β 5 ng/ml, read-out: mPGES-1 inhibitory effect in the cell assay, IC50.
Where [4] appears, read: recombinant human mPGES-1 microsomes, PGH2 2 μM, read-out: mPGES-1 inhibitory effect in the enzyme assay, IC50.
Where [5] appears, read: Table C comparison of selected benzimidazoles, read-out: Cell IC50.
The mark [6] stands for this setting: Table C comparison of selected benzimidazoles, read-out: Enzym IC50.

pIC50: −log10 of the molar value.

T1 sequence (O14684 whole entry): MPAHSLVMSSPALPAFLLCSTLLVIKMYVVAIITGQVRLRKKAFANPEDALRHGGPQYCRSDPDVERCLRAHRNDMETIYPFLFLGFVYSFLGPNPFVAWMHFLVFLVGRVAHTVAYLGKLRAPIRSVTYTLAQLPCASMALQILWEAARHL

`Cn1c(Nc2c(Cl)ccc(CNC(=O)C(C)(C)C)c2F)nc2cc(C(=O)N[C@H]3CC[C@H](C(F)(F)F)CC3)c(OCC(F)F)cc21` [Example 76]: the pIC50 in test [1] (setting [3]) is 8.70; in test [2] (setting [4]), 8.52.
For the compound `Cn1c(Nc2c(Cl)ccc(CNC(=O)C(C)(C)C)c2F)nc2cc(C(=O)NCC(F)(F)F)c(OCC(F)F)cc21` [Example 77], the pIC50 in test [1] (setting [3]) was 7.92; in test [2] (setting [4]), 8.70.
With `Cn1c(Nc2c(Cl)ccc(CNC(=O)N3CC(F)(F)C3)c2Cl)nc2cc(C(=O)N[C@H]3CC[C@H](C(F)(F)F)CC3)c(OCC(F)F)cc21` [Example 80, N-(trans-4-Trifluoromethyl-cyclohex-1-yl)-2-{2,6-dichloro-3-[(3,3-difluoro-azetidine-1-carbonylamino)-methyl]-phenylamino}-6-(2,2-difluoroethoxy)-1-methyl-1H-benzimidazole-5-carboxylic acid amide], the results for the pIC50 in test [1] (setting [3]) and in test [2] (setting [4]) were 8.15 and 9.00, respectively.
Regarding `Cn1c(Nc2c(Cl)ccc(CNC(=O)N3CCC(F)(F)C3)c2Cl)nc2cc(C(=O)N[C@H]3CC[C@H](C(F)(F)F)CC3)c(OCC(F)F)cc21` [Example 81], the negative-log IC50 (pIC50) is 7.30 in test [1] (setting [3]) and 8.52 in test [2] (setting [4]).
In the case of `CC1CCCN1C(=O)NCc1ccc(Cl)c(Nc2nc3cc(C(=O)N[C@H]4CC[C@H](C(F)(F)F)CC4)c(OCC(F)F)cc3n2C)c1Cl` (some centres unmarked) [Example 82], the pIC50 in test [1] (setting [3]) is 7.37; in test [2] (setting [4]) it was 9.00.
Consider `Cn1c(Nc2c(Cl)ccc(CNC(=O)C(C)(C)C)c2Cl)nc2cc(C(=O)Nc3c(F)ccc(F)c3F)c(OCC(F)F)cc21` [Example 85], for which the pIC50 was 8.40 in test [1] (setting [3]) and 9.00 in test [2] (setting [4]).
For `COCCOc1cc2c(cc1C(=O)Nc1ccc(F)c(Cl)c1)nc(Nc1c(Cl)ccc(CNC(=O)C(C)(C)C)c1Cl)n2C` [Example 178], the pIC50 is more than 9.00 in test [1] (setting [3]) and 9.00 in test [2] (setting [4]).
`Cn1c(Nc2c(Cl)ccc(CNC(=O)C(C)(C)C)c2Cl)nc2cc(C(=O)Nc3ccc(F)c(Cl)c3)c(OC3CCOC3)cc21` (centres unmarked) [Example 179]: the negative-log IC50 (pIC50) in test [1] (setting [3]) was more than 9.00; in test [2] (setting [4]) it was 9.00.
Take `CC(C)(C)C(=O)NCc1ccc(Cl)c(Nc2nc3cc(C(=O)N[C@H]4CC[C@H](C(F)(F)F)CC4)c(F)c(F)c3[nH]2)c1Cl` [Example 180]: the pIC50 in test [1] (setting [3]) was 7.03; in test [2] (setting [4]), 8.70.
Regarding `Cn1c(Nc2cc(CNC(=O)C(C)(C)C)ccc2Cl)nc2cc(C(=O)N[C@H]3CC[C@H](C(F)(F)F)CC3)c(OCC(F)F)cc21` [[drawing 47] of PCT/EP2010/052799, reference compound], the pIC50 in test [1] (setting [5]) is 7.77; in test [2] (setting [6]), 8.52.
For `Cn1c(Nc2c(Cl)ccc(CNC(=O)C(C)(C)C)c2Cl)nc2cc(C(=O)Nc3ccc(Br)cc3)c(OCC(F)F)cc21` [drawing 44], the results for the pIC50 in test [1] (setting [5]) and in test [2] (setting [6]) were more than 9.00 and 8.70, respectively.
Regarding `Cn1c(Nc2c(Cl)ccc(CNC(=O)C(C)(C)C)c2Cl)nc2cc(C(=O)N[C@H]3CC[C@H](C(F)(F)F)CC3)c(OCC(F)F)cc21` [drawing 46], the values for the pIC50 in test [1] (setting [5]) and in test [2] (setting [6]) were more than 9.00 and 8.70, respectively.
Take `Cn1c(Nc2c(Cl)ccc(CNC(=O)C(C)(C)C)c2Cl)nc2cc(C(=O)NCC3CC3)c(OCC(F)F)cc21` [drawing 48]: the pIC50 in test [1] (setting [5]) is 9.00; in test [2] (setting [6]), 8.40.

A word on the pIC50: it is the negative decadic logarithm of the IC50, by convention in mol/L.

Source of the values: US8759537B2, “3H-imidazo [4, 5-C] pyridine-6-carboxamides as anti-inflammatory agents” (Boehringer Ingelheim International GmbH, priority 2010, dated 2014).
